Key:
[1] = molecular target: His-tagged Human KRAS^G12D (Homo sapiens (Human), UniProt P01116, G12D); experiment: HTRF KRAS G12D GTP binding assay; details: displacement of GTP-Red tracer
Experimental: KRAS^G12D was used in this assay.
The ability of a test compound to bind to KRAS^G12D was measured by using an HTRF KRAS^G12D GTP Binding Kit (Cisbio, 63ADK000CB27PEG). […] 5 μL of compound solution was added to each well after serial dilution, followed by addition of 5 μL of GDP (50 nM) solution. After 30 minutes incubation at room temperature, 1×6His Eu cryptate antibody solution and GTP-Red tracer were added to the plate, then incubated for another 30 minutes. The HTRF signal was measured with a VICTOR Nivo multimode plate reader according to the manufacturer's instructions. The percent inhibition was calculated using the following formula: […]
(where the “Maximum Signal” are wells containing DMSO without inhibitor; the “Minimum Signal” are wells containing reference inhibitory component (GDP); the “Test compound signal” are wells containing test compound (inhibitor) at established concentrations).
IC50 was determined by fitting percent inhibition at each inhibitor concentration to the four-parameter nonlinear logistic equation using GraphPad Prism.

[2] = tested on: MKN-1; experiment: Cell proliferation assay (CellTiterGlo), MKN-1; type: cell-based; details: Homo sapiens, MKN-1, 72 hours
Experimental: (§1) A cell proliferation assay was used to evaluate inhibition by exemplary compounds. Proliferation assays used human tissue derived cancer cell lines, for example, AsPC-1 (Cobioer, CBP60546), GP2D (Cobioer, CBP60683), NCI-H358 (Cobioer, CBP60544), NCI-H727 (Cobioer, CBP60182), MKN-1 (Cobioer, CBP60486), HCT116 (ATCC, CCL-247), and HT-29 (Cobioer, CBP60011). Signal reflecting cell proliferation was detected with the CellTiterGlo kit (Promega, G7573).
(§2) Cells were cultured in the growth phase and 3×10^3 cells per well were plated in a 96-well plate (Greiner, 655090). Cells were incubated 24 hours at 37° C. and 5% carbon dioxide in a humidity chamber. Serially diluted exemplary compounds were added to the plate which was then incubated for another 72 hours. Plates were brought to room temperature and an equal volume of CellTiterGlo reagent was added. After 10 minutes incubation at room temperature to stabilize the signal, the luminescent signal was measured on the VICTOR Nivo multimode plate reader according to the manufacturer's instructions. The signal was converted to percent inhibition using the following formula: […]
(§3) (where the “Maximum Signal” are wells containing DMSO without inhibitor; the “Minimum Signal” are signal of wells recorded at Day 0 prior to commencement of the experiment; the “Test compound signal” are wells containing inhibitor at established concentrations).
(§4) IC50 was determined by fitting percent inhibition at each inhibitor concentration to the four-parameter nonlinear logistic equation using GraphPad Prism. IC50 (nM) values of selected compounds are depicted in Table 4. “-”: means without measuring; and “ND” means not detected.

[3] = tested on: NCI-H358; experiment: Cell proliferation assay (CellTiterGlo), NCI-H358; type: cell-based; details: Homo sapiens, NCI-H358, 72 hours
Experimental: as §1, §2, §3, §4

[4] = tested on: GP2D; experiment: Cell proliferation assay (CellTiterGlo), GP2D; type: cell-based; details: Homo sapiens, 72 hours
Experimental: as §1, §2, §3, §4

[5] = tested on: NCI-H727; experiment: Cell proliferation assay (CellTiterGlo), NCI-H727; type: cell-based; details: Homo sapiens, NCI-H727, 72 hours
Experimental: as §1, §2, §3, §4

[6] = Microsomal stability assay, human liver microsomes; type: in vitro ADME; details: pooled human liver microsomes, 0.5 mg/mL protein
Experimental: (§5) Test results from this assay were used to determine the metabolic liabilities of test compounds and allow focus on the improvement of drug candidates through structure-activity relationships. Pooled mouse/rat/human liver microsomes were used for this assay
(§6) In vitro mouse (CD-1, BioIVT)/rat (SD, RILD)/human (Corning) liver microsomal suspensions at 0.5 mg/mL protein and 1.3 mM NADPH, 3.3 mM MgCl2 were pre incubated at 37° C. for 3 mins prior to addition of 0.1 mM test compound solution to give a final incubation concentration of 1 μM. Samples were incubated for 0, 15, 30, 60 minutes at 37° C. on a shaker (the positive control substance was cultured for 0 or 60 minutes). At the end of each incubation time both incubated and control samples were quenched with ice-cold stop solution containing internal standard. All samples were mixed by a plate shaker at 800 rpm for 5 minutes, then centrifuged at 4100 rpm for 15 minutes at 4° C. to precipitate protein. Supernatant was transferred to another 96-well plate, dilution solution was added to each supernatant well, and then each bioanalysis plate was sealed. The samples were mixed by plate shaker at 800 rpm for 5 minutes and then centrifuged at 4° C., 4100 rpm for 5 minutes. All samples were stored at 4° C. before LC-MS/MS analysis.
(§7) The peak area ratio was converted to the remaining percentages (% Remaining) using the following formula: […]
(§8) where % Remaining is the compound ratio (compound peak area/internal standard peak area) as a percentage of the 0 minute time point.
(§9) The ln remaining percent of test articles were plotted against time and the gradient of the line determined; the gradient was converted to elimination rate constant by using the following formula:
(§10) Elimination rate constant(ke)=−gradient
(§11) Half time (T1/2) was determined using following formula: […]
(§12) Hepatic intrinsic clearance (CLint(liver)) was determined by using the following formulas: […]
(§13) The Intrinsic clearance of selected compounds is depicted in Table 6.

[7] = Microsomal stability assay, rat liver microsomes; type: in vitro ADME; details: SD, pooled rat liver microsomes, 0.5 mg/mL protein
Experimental: as §5, §6, §7, §8, §9, §10, §11, §12, §13

[8] = Microsomal stability assay, mouse liver microsomes; type: in vitro ADME; details: CD-1, pooled mouse liver microsomes, 0.5 mg/mL protein
Experimental: as §5, §6, §7, §8, §9, §10, §11, §12, §13

[9] = tested on: AsPC-1; experiment: Cell proliferation assay (CellTiterGlo), AsPC-1; type: cell-based; details: Homo sapiens, ASPC1, AsPC-1, 72 hours
Experimental: as §1, §2, §3, §4

[10] = tested on: HT-29; experiment: Cell proliferation assay (CellTiterGlo), HT-29; type: cell-based; details: Homo sapiens, HT-29, 72 hours
Experimental: as §1
(§14) Cells were cultured in the growth phase and 3×10^3 cells per well were plated in a 96-well plate (Greiner, 655090). Cells were incubated 24 hours at 37° C. and 5% carbon dioxide in a humidity chamber. […] After 10 minutes incubation at room temperature to stabilize the signal, the luminescent signal was measured on the VICTOR Nivo multimode plate reader according to the manufacturer's instructions. […]
as §3
(§15) IC50 was determined by fitting percent inhibition at each inhibitor concentration to the four-parameter nonlinear logistic equation using GraphPad Prism. […] “-”: means without measuring; and “ND” means not detected.

[11] = tested on: HCT-116; experiment: Cell proliferation assay (CellTiterGlo), HCT-116; type: cell-based; details: Homo sapiens, HCT-116, 72 hours
Experimental: as §1, §14, §3, §15

Chain of His-tagged Human KRAS^G12D (P01116-2 other isoform, or with tags, fused parts or gaps G12D): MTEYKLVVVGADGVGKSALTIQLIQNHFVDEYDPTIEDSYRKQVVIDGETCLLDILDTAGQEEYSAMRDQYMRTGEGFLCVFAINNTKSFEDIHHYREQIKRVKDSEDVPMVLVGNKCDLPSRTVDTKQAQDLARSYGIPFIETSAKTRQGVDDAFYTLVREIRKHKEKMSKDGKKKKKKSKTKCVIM

CCc1c(F)ccc2cc(O)cc(-c3ncc4c(N5CC[C@@H](O)C5)nc(OC[C@@]56CCCN5C[C@H](F)C6)nc4c3F)c12 [Compound 1]
IC50 [1]: 261 nM
IC50 [2]: 4090 nM
IC50 [3]: 3210 nM
IC50 [4]: 4220 nM
IC50 [5]: 1870 nM

CCc1c(F)ccc2cc(O)cc(-c3ncc4c(N5C[C@H](O)C[C@H]5CO)nc(OC[C@@]56CCCN5C[C@H](F)C6)nc4c3F)c12 [Compound 2]
IC50 [1]: 185 nM
IC50 [2]: > 10000 nM
IC50 [3]: 6320 nM
IC50 [4]: 1320 nM
IC50 [5]: > 10000 nM

CCc1c(F)ccc2cc(O)cc(-c3ncc4c(N5CCCC6(CCO6)C5)nc(OCC5(CN6CCOCC6)CC5)nc4c3F)c12 (stereo not shown) [Compound 2a]
CLint scaled at 1 μM [6]: 402 mL/min/kg
IC50 [1]: 18.8 nM
CLint scaled at 1 μM [7]: 887 mL/min/kg
CLint scaled at 1 μM [8]: 2630 mL/min/kg

CCc1c(F)ccc2cc(O)cc(-c3ncc4c(N5CCC[C@H]5CO)nc(OC[C@@]56CCCN5C[C@H](F)C6)nc4c3F)c12 [Compound 3]
IC50 [2]: 1780 nM
IC50 [3]: 1660 nM
IC50 [4]: 1570 nM
IC50 [5]: 1080 nM

CCc1c(F)ccc2cc(O)cc(-c3ncc4c(N5C[C@H](O)C[C@H]5C(=O)OC)nc(OC[C@@]56CCCN5C[C@H](F)C6)nc4c3F)c12 [Compound 4]
IC50 [1]: > 1000 nM
IC50 [2]: 7880 nM
IC50 [3]: 6600 nM
IC50 [4]: 1630 nM
IC50 [5]: 4040 nM

CCc1c(F)ccc2cc(O)cc(-c3ncc4c(N5CCC[C@H]5C(N)=O)nc(OC[C@@]56CCCN5C[C@H](F)C6)nc4c3F)c12 [Compound 6]
IC50 [1]: 1390 nM
IC50 [2]: > 10000 nM
IC50 [3]: > 10000 nM
IC50 [5]: > 10000 nM

CCc1c(F)ccc2cc(O)cc(-c3ncc4c(N5CCC[C@H]5C(=O)OC)nc(OC[C@@]56CCCN5C[C@H](F)C6)nc4c3F)c12 [Compound 7]
IC50 [1]: > 1000 nM
IC50 [2]: > 10000 nM
IC50 [3]: 7980 nM
IC50 [5]: 5310 nM

CCc1c(F)ccc2cc(O)cc(-c3ncc4c(N5CCC[C@]6(CCO6)C5)nc(OCC5(CN6CCCCC6)CC5)nc4c3F)c12 [Compound 9a]
IC50 [1]: 7.9 nM
IC50 [3]: 18.5 nM
IC50 [9]: 20.1 nM
IC50 [4]: 1.6 nM
IC50 [5]: 15 nM

CCc1c(F)ccc2cc(O)cc(-c3ncc4c(N5CCC[C@]6(CCO6)C5)nc(OCC5(CN6CCCC6)CC5)nc4c3F)c12 [Compound 10a]
CLint scaled at 1 μM [6]: 42.5 mL/min/kg
IC50 [1]: 6.9 nM
IC50 [3]: 18.7 nM
IC50 [9]: 16 nM
CLint scaled at 1 μM [7]: 46.4 mL/min/kg
IC50 [4]: 1.8 nM
IC50 [5]: 17 nM
CLint scaled at 1 μM [8]: 671 mL/min/kg

CCc1c(F)ccc2cc(O)cc(-c3ccc4c(N5CCC[C@]6(CCO6)C5)nc(OCC5(CN(C)C)CC5)nc4c3F)c12 [Compound 15a]
CLint scaled at 1 μM [6]: 31.8 mL/min/kg
IC50 [1]: 19.6 nM
CLint scaled at 1 μM [7]: 52.9 mL/min/kg
CLint scaled at 1 μM [8]: 371 mL/min/kg

CCc1c(F)ccc2cc(O)cc(-c3ncc4c(N5CCC[C@]6(CCO6)C5)nc(OCC(C)(C)CN(C)C)nc4c3F)c12 [Compound 26a]
IC50 [1]: 13.3 nM
IC50 [3]: 98.5 nM
IC50 [9]: 30.8 nM
IC50 [4]: 4.5 nM
IC50 [5]: 37.4 nM

CCc1c(F)ccc2cc(O)cc(-c3ncc4c(N5CCC[C@]6(CCO6)C5)nc(OCC5(CN(CC)CC)CC5)nc4c3F)c12 [Compound 27a]
IC50 [1]: 12.7 nM
IC50 [3]: 40.5 nM
IC50 [9]: 32 nM
IC50 [4]: 3.07 nM
IC50 [5]: 24.8 nM

CCc1c(F)ccc2cc(O)cc(-c3ncc4c(N5CCC[C@]6(CCO6)C5)nc(OCC5(CN6CCC(F)CC6)CC5)nc4c3F)c12 [Compound 29a]
CLint scaled at 1 μM [6]: 181 mL/min/kg
IC50 [1]: 4.3 nM
IC50 [3]: 25.1 nM
IC50 [9]: 25 nM
CLint scaled at 1 μM [7]: 410 mL/min/kg
IC50 [4]: 2.3 nM
IC50 [5]: 14.7 nM
CLint scaled at 1 μM [8]: 1040 mL/min/kg

CCc1c(F)ccc2cc(O)cc(-c3ncc4c(N5CCC[C@]6(CCO6)C5)nc(OCC5(CN(C)C)CC5)nc4c3F)c12 [Compound 34a]
CLint scaled at 1 μM [6]: 26.3 mL/min/kg
IC50 [1]: 3.1 nM
IC50 [3]: 23.7 nM
IC50 [9]: 21.6 nM
CLint scaled at 1 μM [7]: 29.2 mL/min/kg
IC50 [4]: 1.4 nM
IC50 [5]: 13.7 nM
CLint scaled at 1 μM [8]: 255 mL/min/kg

CCc1c(F)ccc2cc(O)cc(-c3ncc4c(N5CCC[C@]6(CCO6)C5)nc(OC[C@@]56CCCN5C[C@H](F)C6)nc4c3F)c12 [Compound 68]
CLint scaled at 1 μM [6]: 124 mL/min/kg
CLint scaled at 1 μM [7]: 311 mL/min/kg
CLint scaled at 1 μM [8]: 2270 mL/min/kg

CCc1c(F)ccc2cc(O)cc(-c3ncc4c(N5CCCC6(CCO6)C5)nc(OCC5(CN(C)C)CC5)nc4c3F)c12 (stereo not shown) [Compound 73]
CLint scaled at 1 μM [6]: 32.4 mL/min/kg
IC50 [1]: 10.7 nM
CLint scaled at 1 μM [7]: 51.1 mL/min/kg
CLint scaled at 1 μM [8]: 361 mL/min/kg

CCc1c(F)ccc2cc(O)cc(-c3ncc4c(N5CCCC(C)(O)C5)nc(OC[C@@]56CCCN5C[C@H](F)C6)nc4c3F)c12 (stereo partly shown) [Compound A1, reference compound]
IC50 [10]: 7730 nM
CLint scaled at 1 μM [6]: 46 mL/min/kg
IC50 [2]: 144 nM
IC50 [3]: 152 nM
IC50 [9]: 161 nM
CLint scaled at 1 μM [7]: 111 mL/min/kg
IC50 [4]: 15.7 nM
IC50 [5]: 130 nM
IC50 [11]: 1430 nM
CLint scaled at 1 μM [8]: 1180 mL/min/kg

— patent US20240239813A1, “KRAS INHIBITORS AND PHARMACEUTICAL USES THEREOF” (RISEN (SUZHOU) PHARMA TECH CO., LTD., priority 2022, published 2024)
